Like-named read-outs stand apart in the source and are kept apart here.
How the values were obtained:
[1] = biological target: T1, A2BARs in Jurkat-T cell membranes (Homo sapiens, UniProt P29275); type: binding; conditions: vs [3H]PSB-603 (0.3 nM); Jurkat-T cells, A2B ≥ A2A; read-out: Ki ± SEM
T1 construct: Human Jurkat-T cells natively expressing A2A and A2BARs; endogenous in cells; host or cells: Jurkat-T
Description: The preparation of Jurkat-T cell membranes was performed as follows: a Jurkat-T cell suspension was centrifuged in 50 ml falcon tubes at 200 g, 4° C, 5 min. The supernatant was discarded and the cell pellets were quickly frozen at –80° C. The defrosted pellets were then resuspended in ice-cold 25 mM Tris-buffer, 0.32 M sucrose, 1 mM ethylenediaminetetraacetic acid (EDTA), 0.1 mM phenylmethanesulfonylfluoride (PMSF), pH 7.4, and homogenized with an Ultra-Turrax (30 s on ice). The homogenate was centrifuged for 10 min at 1000 g at 4° C. The resulting pellets were discarded and the supernatant was centrifuged for 1 h at 48.000 g at 4° C. Pellets containing the membranes were resuspended in aqua bidest., homogenized with an Ultra-Turrax (30 s on ice) and centrifuged under the same conditions. The supernantant was discarded and the pellets were resuspended in 50 mM Tris-buffer, pH 7.4 and homogenized with a glass Teflon homogenizer on ice. The resuspended and homogenzied pellets were aliquoted and stored at –80° C until use.
After an incubation time of 60 min at rt, the assay mixture was filtered through GF/B glass fiber filters. Washing buffer: 50 mM Tris-HCl buffer, 0.1% bovine serum albumin (BSA), pH 7.4.

[2] = biological target: T2, A2BARs in HeLa cell membranes (Homo sapiens, UniProt P29275); type: binding; conditions: vs [3H]PSB-603 (0.3 nM); HeLa cells, A2B ≥ A2A; read-out: Ki ± SEM
T2 construct: HeLa cells natively expressing human A2A and A2BARs; endogenous in cells; host or cells: HeLa
Description: (§4) The preparations of CHO and HeLa membranes recombinantly (or natively) expressing human A2A and/or A2BAR subtypes were performed as previously described [5]. Membranes from HEK-A2B or A2A cells, which were used for some of the radioligand competition binding studies, were purchased from Perkin Elmer (Waltham, USA). […] The protein content of all membrane preparations was determined with the Lowry method [58].

[3] = tested on: HEK293 (native) cells, A2B ≥ A2A; conditions: cited from earlier work
[4] = biological target: T3, human A2AAR and A2BAR in HEK293T cells (Homo sapiens, UniProt P29274+P29275); experiment: Dynamic mass redistribution (DMR) assay in HEK293T cells transfected with A2A and A2BAR cDNA; type: cell-based; conditions: 100 nM agonist
T3 construct: expressed in transfected cells; host or cells: HEK293T
T3 sequence (P29274 whole entry, one chain of several): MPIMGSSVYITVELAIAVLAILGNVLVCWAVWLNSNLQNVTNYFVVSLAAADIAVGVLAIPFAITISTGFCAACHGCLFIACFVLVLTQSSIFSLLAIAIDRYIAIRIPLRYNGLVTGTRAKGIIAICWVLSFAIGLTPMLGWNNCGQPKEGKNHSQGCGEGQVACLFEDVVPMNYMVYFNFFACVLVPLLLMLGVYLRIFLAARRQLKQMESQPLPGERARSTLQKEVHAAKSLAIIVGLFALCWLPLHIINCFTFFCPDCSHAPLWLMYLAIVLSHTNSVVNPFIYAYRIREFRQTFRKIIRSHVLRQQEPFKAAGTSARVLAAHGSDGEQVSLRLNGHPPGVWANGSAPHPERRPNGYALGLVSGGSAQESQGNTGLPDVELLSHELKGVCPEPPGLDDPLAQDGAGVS
Description: In brief, 24 h before the assay, cells were seeded at a density of 7,500 cells per well in 384-well sensor microplates with 40 µl of growth medium and cultured for 24 h (37° C, 5 % CO2) to obtain 70–80% confluent monolayers. […] Hereafter, the sensor plate was scanned and a baseline optical signature was recorded before adding 10 µl of test compound dissolved in assay buffer containing 0.1% DMSO and DMR responses were monitored for at least 8,000 s using an EnSpire® Multimode Plate Reader (PerkinElmer, Waltham, MA, USA) by a label-free technology. Data were analyzed using EnSpire Workstation Software v 4.10.

[5] = tested on: prostate cancer cell lines (A2B > A2A); conditions: three prostate cancer cell lines (A2B > A2A); ref [13]; cited from earlier work
[6] = biological target: T4, human A2BAR (Homo sapiens, UniProt P29275); set-up: expressed in transfected cells; conditions: cAMP accumulation; CHO-A2B; ref [13]; cited from earlier work
T4 sequence (P29275 1-332): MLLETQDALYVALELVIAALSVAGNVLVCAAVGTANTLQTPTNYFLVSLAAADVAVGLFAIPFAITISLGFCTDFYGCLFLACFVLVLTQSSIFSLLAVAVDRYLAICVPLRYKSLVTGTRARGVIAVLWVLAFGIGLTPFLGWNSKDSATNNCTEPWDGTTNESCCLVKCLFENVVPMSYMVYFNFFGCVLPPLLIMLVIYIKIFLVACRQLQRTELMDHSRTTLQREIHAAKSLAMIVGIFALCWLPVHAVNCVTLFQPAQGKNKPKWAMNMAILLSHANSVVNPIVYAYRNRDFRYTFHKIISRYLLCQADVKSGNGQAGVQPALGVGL

[7] = tested on: HEK-A2B cells, A2B ≥ A2A; conditions: cited from earlier work
[8] = biological target: T3, human A2AAR and A2BAR in HEK293T cells; experiment: cAMP assay at HEK-A2A cells transiently transfected with increasing amounts of A2BAR; type: cell-based; conditions: 100 nM agonist, A2BAR cDNA 0.25–1.5 µg
Description: HEK293T cells were transiently transfected with the corresponding cDNA (pcDNA3.1+-hA2B, pcDNA3.1+-hA2A) by the polyethylenimine (Sigma) method [62]. The determination of AR-induced cAMP accumulation in HEK293T cells transiently expressing A2A and A2BARs was performed as previously described [62].

[9] = tested on: Human prostatic carcinoma cells PC-3; set-up: method as in Wei Q, et al. Purinergic Signal. 2013; 9: 271-280. [23]; conditions: et al. Purinergic Signal. 2013, 9: 271-280. [23], cited from earlier work
[10] = tested on: T24 human bladder carcinoma cells; conditions: T24 human bladder carcinoma, cited from earlier work
[11] = biological target: T4, human A2BAR; set-up: expressed in transfected cells; conditions: vs [3H]PSB-603 (0.3 nM); A2BAR expressing HEK or CHO membranes; ref [14]; read-out: Ki ± SEM; cited from earlier work
[12] = biological target: T5, A2A and A2BARs natively expressed in Jurkat-T cells (Homo sapiens, UniProt P29274+P29275); set-up: method as in ref [15] (a number printed in a supplementary file, which may have a reference list of its own: not looked up in the article's list); conditions: cAMP accumulation, up to 10 µM, ref [15]; cited from earlier work
T5 sequence (P29274 whole entry, one chain of several): as the sequence (P29274 whole entry, one chain of several) above

[13] = biological target: T6, human A2AAR (Homo sapiens, UniProt P29274); experiment: cAMP accumulation assay in CHO-A2A cells; type: cell-based
T6 construct: expressed in transfected cells
T6 sequence (P29274 whole entry): as the sequence (P29274 whole entry, one chain of several) above
Description: (§1) The determination of cAMP accumulation in recombinant CHO and in Jurkat-T cells was performed as previously described.

[14] = biological target: T4, human A2BAR; experiment: biochemical
Description: as §4

[15] = biological target: T6, human A2AAR; type: binding
Description: The preparations of CHO and HeLa membranes recombinantly (or natively) expressing human A2A and/or A2BAR subtypes were performed as previously described [5]. Membranes from HEK-A2B or A2A cells, which were used for some of the radioligand competition binding studies, were purchased from Perkin Elmer (Waltham, USA). The preparation of Jurkat-T cell membranes was performed as follows: a Jurkat-T cell suspension was centrifuged in 50 ml falcon tubes at 200 g, 4° C, 5 min. The supernatant was discarded and the cell pellets were quickly frozen at –80° C. The defrosted pellets were then resuspended in ice-cold 25 mM Tris-buffer, 0.32 M sucrose, 1 mM ethylenediaminetetraacetic acid (EDTA), 0.1 mM phenylmethanesulfonylfluoride (PMSF), pH 7.4, and homogenized with an Ultra-Turrax (30 s on ice). The homogenate was centrifuged for 10 min at 1000 g at 4° C. The resulting pellets were discarded and the supernatant was centrifuged for 1 h at 48.000 g at 4° C. Pellets containing the membranes were resuspended in aqua bidest., homogenized with an Ultra-Turrax (30 s on ice) and centrifuged under the same conditions. The supernantant was discarded and the pellets were resuspended in 50 mM Tris-buffer, pH 7.4 and homogenized with a glass Teflon homogenizer on ice. […] The protein content of all membrane preparations was determined with the Lowry method [58].

[16] = biological target: T6, human A2AAR; conditions: vs [3H]MSX-2 (1 nM), A2AAR expressing HEK or CHO membranes, read-out: Ki ± SEM, cited from earlier work
[17] = biological target: T4, human A2BAR; experiment: cell-based
Description: as §1

[18] = biological target: T5, A2A and A2BARs natively expressed in Jurkat-T cells; conditions: read-out: KB-value ± SEM, cAMP accumulation, antagonist potency versus NECA
Description: as §1

[19] = tested on: isolated perfused mouse heart; conditions: A2B knockout vs wildtype mice, ref [51]; cited from earlier work
[20] = tested on: CHO-K1 cell membranes (non-transfected); experiment: Radioligand affinity (saturation or homologous competition) at CHO cells; type: binding, Chinese hamster
Description: (§2) Radioligand receptor binding experiments at membrane preparation of native (HeLa) and recombinant cells (CHO- or HEK cells recombinantly expressing A2A and/or A2BARs) using the A2B-selective antagonist radioligand [³H]PSB-603 (spec. activity: 79 Ci/mmol) to detect A2BARs were performed as previously described. Competition binding experiments at various membrane preparations of native (HeLa, Jurkat-T) and recombinant cells (CHO or HEK cells expressing A2A and/or A2BARs) using the A2A-selective antagonist radioligand [^3H]MSX-2 (spec. activity: 85 Ci/mmol) to detect A2AARs were performed in analogy to described procedures. […] Non-specific binding was determined in the presence of unlabeled MSX-2, or CGS-15943, respectively (10 µM), both giving identical results.
(§3) The assay was performed in a final volume of 400 µl containing 4 µl of test compound dissolved in DMSO, 196 µl buffer (50 mM Tris-HCl, 10 mM MgCl2 pH 7.4), 100 µl of radioligand solution in the same buffer (5 nM), and 100 µl of membrane preparation (10 to 200 µg of protein per vial, 2 U/ml ADA 20 min incubation at rt). […] All data were analyzed with GraphPad Prism, Version 4 (GraphPad Inc., La Jolla, CA).

[21] = biological target: A2A and A2BARs in intact primary human lymphocytes; experiment: Radioligand affinity at intact primary human T-lymphocytes, unstimulated; type: binding; conditions: T-Lymphocytes unstimulated (A2A > A2B), intact cells, homologous competition
[22] = biological target: A2A and A2BARs in intact primary human lymphocytes; experiment: Radioligand affinity at intact primary human T-lymphocytes, stimulated with phytohemagglutinin; type: binding; conditions: T-Lymphocytes stimulated (A2A > A2B); intact cells; homologous competition; read-out: KD ± SEM
[23] = biological target: T7, A2A and A2BARs in HeLa cell membranes (Homo sapiens, UniProt P29274+P29275); experiment: Radioligand affinity at HeLa cells (A2B ≥ A2A); type: binding; conditions: homologous competition, read-out: KD ± SEM
T7 construct: HeLa cells natively expressing human A2A and A2BARs; endogenous in cells; host or cells: HeLa
T7 sequence (P29274 whole entry, one chain of several): as the sequence (P29274 whole entry, one chain of several) above
Description: as §2, §3

[24] = biological target: T8, A2A and A2BARs in Jurkat-T cell membranes (Homo sapiens, UniProt P29274+P29275); experiment: Radioligand affinity at Jurkat-T cells (A2B ≥ A2A); type: binding; conditions: homologous competition
T8 construct: Human Jurkat-T cells natively expressing A2A and A2BARs; endogenous in cells; host or cells: Jurkat-T
T8 sequence (P29274 whole entry, one chain of several): as the sequence (P29274 whole entry, one chain of several) above
Description: as §2
as §3, with “CA). […]” for “CA).”

[25] = biological target: T9, HA-tagged human A2AAR (Homo sapiens, UniProt P29274); experiment: Radioligand affinity at CHO-HA-A2A; type: binding; conditions: homologous competition
T9 construct: HA; expressed in transfected cells
T9 sequence (P29274 whole entry): as the sequence (P29274 whole entry, one chain of several) above

[26] = biological target: T4, human A2BAR; set-up: expressed in transfected cells; method as in ref [12] (a number printed in a supplementary file, which may have a reference list of its own: not looked up in the article's list); conditions: HEK or CHO-A2B (A2B); saturation; ref [12]; read-out: KD ± SEM; cited from earlier work
[27] = biological target: T6, human A2AAR; experiment: Radioligand affinity at HEK or CHO-A2A; type: binding; conditions: saturation
Description: as §2, §3

[28] = ref Gao Z, et al. Biochem Pharmacol. 2014, 90: 297-306. [17]
[29] = ref Hinz S, et al. J Pharmacol Exp Ther. 2014, 3: 427-436. [15]
[30] = ref Cooper J, et al. Br J Pharmacol. 1997, 122: 546-550. [18]
[31] = ref Phelps PT, et al. Eur J Pharmacol. 2006, 536: 28-37. [20]

Question: With `N#Cc1c(N)nc(SCC(N)=O)c(C#N)c1-c1ccc(OCC2CC2)cc1` [BAY60-6583] as the molecule, how does the Ki [1] read?
Answer: Its Ki is 2960 nM.

Question: What about the Ki [2] of the same molecule?
Answer: The Ki was 212 ± 58 nM.

Question: What about the EC50 [3, 28] of the same molecule?
Answer: Its EC50 is 296 nM.

Question: What about the “change in DMR signal with increasing amounts of transiently transfected A2BAR” value [4] of the same molecule?
Answer: Its value is “time-dependent increase in the signal”.

Question: And the “induction of cAMP accumulation” value [5]?
Answer: Its value is “concentration-dependently induced cAMP accumulation”.

Question: And the EC50 [6]?
Answer: The EC50 was 165 nM.

Question: What about the EC50 [7, 28] of the same molecule?
Answer: The EC50 was 6.14 nM.

Question: And the EC50 [7, 29]?
Answer: The EC50 was 505 nM.

Question: And the “change in cAMP accumulation with increasing amounts of transiently transfected A2BAR” value [8]?
Answer: The value was “significant increase in cAMP accumulation”.

Question: What about the EC50 ([9]; ref Wei Q) of the same molecule?
Answer: Its EC50 is 7.2 nM.

Question: What about the EC50 [10, 28] of the same molecule?
Answer: Its EC50 is 43 nM.

Question: And the Ki [11]?
Answer: Its Ki is 212 ± 20 nM.

Question: What about the “EC50 (result in words)” value [12] of the same molecule?
Answer: The value was “low signal”.

Question: And the EC50 ([13]; cAMP accumulation, CHO-A2A)?
Answer: Its EC50 is greater than 10000 nM.

Question: With `CCCn1c(=O)c2[nH]c(C3CCCC3)nc2n(CCC)c1=O` [DPCPX, 8-cyclopentyl-1,3-dipropylxanthine] as the molecule, how does the “A2B antagonist IC50/KB” value [3, 30] read?
Answer: Its value is “DPCPX: 97.7 nM”.

Question: Which “A2B antagonist IC50/KB” value [10, 31] does the source give for `CCCn1c(=O)c2[nH]c(-c3ccc(OCC(=O)Nc4ccc(C#N)cc4)cc3)nc2n(CCC)c1=O` [MRS1754] here?
Answer: The value was “MRS1754: 665 nM”.

Question: For `C#CCn1c(=O)c2c(nc(C=Cc3cccc(OC)c3)n2C)n(CCCO)c1=O` [MSX-2, 3-(3-hydroxypropyl)-7-methyl-8-(m-methoxystyryl)-1-propargylxanthine], which Ki [14] is on record?
Answer: The Ki was greater than 1000 nM.

Question: What about the Ki [15] of the same molecule?
Answer: The Ki was 5 ± 0.6 nM.

Question: What about the Ki ([16]; ref [13]) of the same molecule?
Answer: Its Ki is 2.03 nM.

Question: What about the Kb ([13]; read-out: KB-value ± SEM) of the same molecule?
Answer: Its Kb is 14.5 ± 3.6 nM.

Question: Which Ki [1] does the source give for `CCCn1c(=O)[nH]c2nc(-c3ccc(S(=O)(=O)N4CCN(c5ccc(Cl)cc5)CC4)cc3)[nH]c2c1=O` [PSB-603, 8-(4-(4-(4-chlorophenyl)-piperazine-1-sulfonyl)phenyl)-1-propylxanthine] here?
Answer: The Ki was 1.43 ± 0.58 nM.

Question: What about the Ki [2] of the same molecule?
Answer: The Ki was 1.43 ± 0.73 nM.

Question: What about the Kb [17] of the same molecule?
Answer: The Kb was 0.358 nM.

Question: What about the Kb [18] of the same molecule?
Answer: The Kb was 0.871 nM.

Question: What about the Ki ([16]; ref [12]) of the same molecule?
Answer: Its Ki is greater than 10000 nM.

Question: And the Kb ([9]; versus BAY60-6583, ref Wei Q, read-out: A2B antagonist KB)?
Answer: Its Kb is 1 nM.

Question: For `Nc1nc2c(cnn2CCc2ccccc2)c2nc(-c3ccco3)nn12` [SCH58261], which “block of NECA-induced increase in coronary flow” value [19] is on record?
Answer: The value was “blocked NECA-induced increase in coronary flow to a higher degree in KO than in WT mice”.

Question: And the “A2A antagonist IC50/KB” value [10, 31]?
Answer: Its value is “SCH58261:405 nM”.

Question: For `CCNC(=O)[C@H]1O[C@@H](n2cnc3c(N)nc(NCCc4ccc(CCC(=O)O)cc4)nc32)[C@H](O)[C@@H]1O` [[³H]CGS-21680], which “KD ± SEM” value [20] is on record?
Answer: The value was “No binding”.

Question: For `CCCn1c(=O)[nH]c2nc(-c3ccc(S(=O)(=O)N4CCN(c5ccc(Cl)cc5)CC4)cc3)[nH]c2c1=O` [[³H]PSB-603], which “KD ± SEM” value [21] is on record?
Answer: The value was “High affinity binding”.

Question: And the Kd ([21]; read-out: KD ± SEM)?
Answer: Its Kd is 0.68 ± 0.242 nM.

Question: What about the Kd [22] of the same molecule?
Answer: The Kd was 0.241 ± 0.108 nM.

Question: And the Kd [23]?
Answer: Its Kd is 2.49 ± 1.39 nM.

Question: What about the “KD ± SEM” value [24] of the same molecule?
Answer: Its value is “high affinity binding”.

Question: And the Kd ([24]; read-out: KD ± SEM)?
Answer: The Kd was 2.09 ± 0.72 nM.

Question: What about the “KD ± SEM” value [25] of the same molecule?
Answer: Its value is “no high-affinity binding”.

Question: What about the “KD ± SEM” value [20] of the same molecule?
Answer: The value was “no high-affinity binding”.

Question: And the Kd [26]?
Answer: Its Kd is 0.403 ± 0.188 nM.

Question: And the “KD ± SEM” value [27]?
Answer: The value was “no high-affinity binding”.

Question: Which EC50 [3, 30] does the source give for `Nc1ncnc2c1ncn2[C@@H]1O[C@H](CO)[C@@H](O)[C@H]1O` [adenosine] here?
Answer: The EC50 was 65000 nM.

Question: What about the EC50 [7, 29] of the same molecule?
Answer: The EC50 was 2510 nM.

— paper PMC5862601 (Oncotarget, 2018)
